Source: US9150902B2, “Method for determination of N-deacetylase/N-sulfotransferase activity” (SEIKAGAKU CORPORATION, priority 2005, dated 2015)

Key:
[1] = system: monoclonal antibody F58-10E4; assay: Inhibition method: monoclonal antibody F58-10E4 binding to HSBK-adhered plate in presence of N-sulfated heparosan; settings: 20 μg/well; F58-10E4 1 μg/mL; lot as prepared
Protocol: A polysaccharide in which biotin is bound to the reducing end of HSBK was prepared using HSBK instead of NAH and in accordance with the method described in Example 1(3). Next, this was adhered to a plate in accordance with the method described in Example 9.
The monoclonal antibody F58-10E4 (final concentration: 1 μg/mL) and the 9 lots of N-sulfated heparosan (20 μg/well; a value corrected based on the uronic acid content obtained by the carbazole method) were added to the plate to which HSBK was adhered to effect the antigen-antibody reaction under the conditions described in Example 7, and the absorbance was measured by the method described in Example 7. This is a measurement by a so-called inhibition method. When concentration of the N-sulfated heparosan in the antigen-antibody reaction liquid is 0, substantially all of the monoclonal antibody F58-10E4 binds to the adhered HSBK and the detected absorbance becomes high.
By regarding the absorbance when concentration of the N-sulfated heparosan in the antigen-antibody reaction liquid is 0 as “inhibition rate 0%”, and the absorbance when excess concentration of N-sulfated heparosan is present in the antigen-antibody reaction liquid as “inhibition rate 100%”, the inhibition ratio was calculated on the 9 lots of N-sulfated heparosan. […]
The inhibition rates of these substances were also calculated in the same manner. […]

[2] = biological target: T1, NDST2 (ND activity) (Homo sapiens, UniProt P52849); assay: Screening of ND activity inhibitors using the plate to which NAH-biotin was adhered via avidin (JM403 ELISA); assay type: biochemical; settings: final concentration 100, 10 or 1 μg/ml; for ranking of ability to inhibit ND activity among NAH, HP, NSDS-HP and HSBK: FIG. 8; for function to inhibit ND activity (rate of change, FIG. 8): NDST enzyme liquid 80 times diluted, 37° C. 60 minutes
T1 construct: baculovirus gp67 signal peptide (39 amino acids) (N, cleaved yes); made in house; host or cells: Sf21 insect cells infected with recombinant baculovirus (virus stock made in Sf9)
T1 sequence (P52849 79-883): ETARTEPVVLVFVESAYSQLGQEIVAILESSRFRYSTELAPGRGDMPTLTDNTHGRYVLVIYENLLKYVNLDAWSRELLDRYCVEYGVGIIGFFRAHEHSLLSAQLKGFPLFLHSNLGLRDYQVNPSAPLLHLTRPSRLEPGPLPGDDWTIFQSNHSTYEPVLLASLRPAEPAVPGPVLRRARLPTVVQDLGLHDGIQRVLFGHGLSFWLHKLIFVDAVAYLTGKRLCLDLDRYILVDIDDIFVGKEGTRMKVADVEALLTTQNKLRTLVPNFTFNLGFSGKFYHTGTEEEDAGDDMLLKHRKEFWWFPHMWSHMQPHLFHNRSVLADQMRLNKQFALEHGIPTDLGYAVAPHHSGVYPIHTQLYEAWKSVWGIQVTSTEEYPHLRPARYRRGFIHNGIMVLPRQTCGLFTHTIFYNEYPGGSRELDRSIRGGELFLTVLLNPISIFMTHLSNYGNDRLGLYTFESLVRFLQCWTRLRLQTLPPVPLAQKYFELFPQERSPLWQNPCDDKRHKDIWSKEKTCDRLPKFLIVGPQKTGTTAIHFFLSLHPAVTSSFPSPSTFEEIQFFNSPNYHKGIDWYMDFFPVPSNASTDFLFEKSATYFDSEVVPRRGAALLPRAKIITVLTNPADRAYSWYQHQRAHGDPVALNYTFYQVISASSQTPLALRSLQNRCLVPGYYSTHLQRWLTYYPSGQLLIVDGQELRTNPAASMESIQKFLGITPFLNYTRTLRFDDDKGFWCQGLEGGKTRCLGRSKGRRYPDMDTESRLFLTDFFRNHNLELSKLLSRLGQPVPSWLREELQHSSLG
Protocol: Each of the following 6 substances to be tested was diluted to 200, 20 or 2 μg/ml using the enzyme reaction liquid 1. Quickly after addition of 25 μl of the solutions to each well of the solid phase (plate) produced in Example 9, 25 μl of an “NDST enzyme liquid diluted 40 times with the enzyme reaction liquid I” was added to each well (final concentration of each substance to be tested 100, 10 or 1 μg/ml, final dilution rate of the enzyme liquid 80 times).
Thereafter, the enzyme reaction was effected by standing still at 37° C. for 60 minutes. In this connection, the enzyme reaction liquid 1 alone was added to the wells to which the substances to be tested were not added.
After completion of the reaction, the wells were washed three times with T-TBS and 100 μl of a solution of the monoclonal antibody JM403 (Seikagaku Corporation) adjusted to 1 μg/ml with TBS was added to each well. Thereafter, the plate was allowed to stand still at ordinary temperature (15 to 25° C.) for 60 minutes to undergo the antigen-antibody reaction. After the reaction, the wells were washed three times with T-TBS, and 100 μl of the HRP-labeled goat anti-mouse immunoglobulin G+M antibody diluted 20000 times with TBS was added to each well. Thereafter, the plate was allowed to stand still at ordinary temperature for 60 minutes to undergo the antigen-antibody reaction.
After the reaction, this plate was washed three times with T-TBS, and 100 μl of the TMB solution was added to each well and allowed to undergo the reaction at ordinary temperature for 30 minutes to develop a color. Thereafter, the reaction was terminated by adding 100 μl of the reaction terminating liquid to each well, and then the absorbance was measured by the same method described in Example 5. Also, the rate of change (%) was calculated by the following calculation formula. Rate of change(%)=100×((the value of absorbance when each substance to be tested is not added)−(the value of absorbance when each substance to be tested at respective concentration is added))/(the value of absorbance when each substance to be tested is not added).
In this connection, since the monoclonal antibody JM403 binds to the GlcN residues in NAH (that is, de-N-acetylated GlcNAc residue), higher value of the detected absorbance means that the number of GlcN residues in NAH is larger (that is, the number of de-N-acetylated GlcNAc residues is larger), namely the ND activity is higher. On the contrary, lower value of the detected absorbance means that the number of GlcN residues in NAH is smaller (that is, the number of de-N-acetylated GlcNAc residues is smaller), namely the ND activity is low.
Additionally, when a substance to be tested inhibits ND activity, the aforementioned rate of change (%) becomes a positive number. Also, higher value of the rate of change means higher ability of the substance to be tested to inhibit ND.

Bovine kidney-derived HS [HSBK]
Inhibition rate (%) No treatment [1]: 99%
ranking of ability to inhibit ND activity among NAH, HP, NSDS-HP and HSBK [2]: highest ability to inhibit ND activity
function to inhibit ND activity (rate of change, FIG. 8) [2]: inhibit ND activity concentration-dependently

Cockscomb-derived hyaluronic acid [HA]
function to inhibit ND activity (rate of change, FIG. 8) [2]: hardly possessed of the function to inhibit ND activity

N-acetyl heparosan [NAH]
ranking of ability to inhibit ND activity among NAH, HP, NSDS-HP and HSBK [2]: lowest ability to inhibit ND activity
function to inhibit ND activity (rate of change, FIG. 8) [2]: inhibit ND activity concentration-dependently

N-sulfated/completely de-O-sulfated HP [NSDS-HP]
function to inhibit ND activity (rate of change, FIG. 8) [2]: inhibit ND activity concentration-dependently

Partially de-N-acetylated NAH [PDNAC-NAH]
function to inhibit ND activity (rate of change, FIG. 8) [2]: hardly possessed of the function to inhibit ND activity

Swine small intestine-derived HP
function to inhibit ND activity (rate of change, FIG. 8) [2]: inhibit ND activity concentration-dependently
